Assay results: publication PMC6199279, “Design of Peptoid-peptide Macrocycles to Inhibit the β-catenin TCF Interaction in Prostate Cancer” (Nature Communications, 2018)
Numbered stars: 1 amine (or outer) side, 2 acyl side, 3 side chain; on linkers, the order of the positions; unused ones are H or OH. Square brackets hold non-standard residues; d marks the D form. Peptide text beside a SMILES is read from it. N(2-(2-PhOPh)Et)Gly = O=C(O)CNCCc1ccccc1Oc1ccccc1; Gly(N-3,5-(OMe)2-Ph) = COc1cc(NCC(=O)O)cc(OC)c1; X1 = COc1ccc([C@H](C)N(CC(=O)[*:2])[*:1])cc1; N((CH2)3OiPr)Gly = CC(C)OCCCNCC(=O)O

How the values were obtained:
[1] = test system: AR luciferase reporter (3xARE); assay: 3x-Androgen Response Element (ARE) luciferase reporter assay in LNCaP-abl cells; assay type: cell-based
From the text: Using a TOP-Flash Wnt luciferase reporter, we tested the 12 oligomers identified from in silico modeling for inhibitory activity (Fig. 2b). […] We also employed a 3 × -Androgen Response Element (ARE) luciferase reporter to measure the effect on AR activity. […] As additional controls, we obtained previously developed, commercially available Wnt inhibitors and tested them in the Wnt luciferase assay (Supplementary Fig. 5).
(§1) We next characterized the dose response curves for compound 13 in the Wnt and AR luciferase reporters. The linear version of 13 (linear 13: NH2-|N-mpp, N-dmp, N-ipp, N-Smpe, N-Smpe, D-Ala|-OH) was used as a control compound. […] To test direct binding, we pre-formed dynamic light scattering (DLS) with β-catenin in the presence of vehicle, compound 13, and α-cyclodextrin. […] HEK293 cells were transiently transfected with a plasmid expressing full length, myc-tagged TCF4. After 48 h treatment with either vehicle (DMSO) or 10 µM 13, cells were lysed and myc-TCF4 protein was immunoprecipitated.
(§2) LNCaP-abl and LNCaP-95 cells were cultured in indicator free RPMI 1640 media (Life) supplemented with 10% charcoal stripped FBS, 1% pennicillin/streptomycin, and 1% L-Glutamine. HEK-293 Cells were cultured in DMEM media (Life) supplemented with 10%FBS and 1% pennicillin/streptomycin. A549 and U2OS cells were cultured in RPMI 1640 media (Life) and McCoy’s 5 A modified media (Life), respectively, both supplemented with 10%FBS and 1% pennicillin/streptomycin. LNCaP-abl, and LNCaP-95 cell lines were generous gifts from Z. Culig (Innsbruck Medical University, Austria) and J. Isaacs (Johns Hopkins University, Baltimore, MD), respectively. Cell lines were authenticated by STR profiling (Genetica Cell Line Testing; Burlington, NC). […] Both were measured using the ONE-Glo detection kit (Promega) and data is standardized to CellTiter-Fluor (Promega) viability readings to account for potential variations in well to well cell number. […] Total protein concentration in cell lysates were determined using Pierce Rapid Gold BCA Protein Assay Kit (Thermo). […]

[2] = test system: U2OS (osteosarcoma) cells; assay: 2D proliferation (CellTiter-Fluor viability), U2OS; assay type: cell-based; conditions: Wnt-independent cell line, 5 days
[3] = target: T1, β-catenin:TCF4 protein interaction (Homo sapiens, UniProt P35222); assay: Co-immunoprecipitation of myc-TCF4 and endogenous β-catenin in HEK293 cells; assay type: cell-based; conditions: HEK293 cells with myc-TCF4, 10 µM, 48 h, vs vehicle
T1 construct: host or cells: HEK293
T1 sequence (P35222 2-781 limits assumed): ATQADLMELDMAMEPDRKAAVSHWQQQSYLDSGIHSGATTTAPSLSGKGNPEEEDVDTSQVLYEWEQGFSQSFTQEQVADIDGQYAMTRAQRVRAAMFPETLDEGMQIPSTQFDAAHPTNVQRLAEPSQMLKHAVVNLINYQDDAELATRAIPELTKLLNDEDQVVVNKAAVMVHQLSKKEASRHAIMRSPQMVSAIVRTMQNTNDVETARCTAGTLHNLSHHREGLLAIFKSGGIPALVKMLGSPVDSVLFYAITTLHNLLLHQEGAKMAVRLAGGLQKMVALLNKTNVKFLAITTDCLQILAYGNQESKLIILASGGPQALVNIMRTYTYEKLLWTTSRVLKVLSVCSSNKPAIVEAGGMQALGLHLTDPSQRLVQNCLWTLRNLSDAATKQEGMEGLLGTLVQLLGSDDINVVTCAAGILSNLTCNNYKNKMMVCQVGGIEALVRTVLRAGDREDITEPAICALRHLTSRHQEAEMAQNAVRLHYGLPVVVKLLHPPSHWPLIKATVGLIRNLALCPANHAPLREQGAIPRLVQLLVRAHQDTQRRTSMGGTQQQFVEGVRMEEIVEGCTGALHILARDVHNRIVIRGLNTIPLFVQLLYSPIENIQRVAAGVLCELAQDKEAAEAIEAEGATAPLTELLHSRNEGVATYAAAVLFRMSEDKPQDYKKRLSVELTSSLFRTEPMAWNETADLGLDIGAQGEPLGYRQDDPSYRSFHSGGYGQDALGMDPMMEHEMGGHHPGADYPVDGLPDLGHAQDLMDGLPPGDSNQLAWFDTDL
Procedure: as §1
as §2, with “pennicillin/streptomycin.” for “pennicillin/streptomycin. LNCaP-abl, and LNCaP-95 cell lines were generous gifts from Z. Culig (Innsbruck Medical University, Austria) and J. Isaacs (Johns Hopkins University, Baltimore, MD), respectively. Cell lines were authenticated by STR profiling (Genetica Cell Line Testing; Burlington, NC).”

β-catenin = target: T2, β-catenin (Homo sapiens, UniProt P35222); assay: Dynamic light scattering of β-catenin; assay type: binding; conditions: 10 µM compound vs 1% DMSO vehicle
T2 construct: His6-β-catenin armadillo domain, AA134-668; made in house; host or cells: E. coli BL21 DL3 (NEB)
T2 sequence (P35222 134-668): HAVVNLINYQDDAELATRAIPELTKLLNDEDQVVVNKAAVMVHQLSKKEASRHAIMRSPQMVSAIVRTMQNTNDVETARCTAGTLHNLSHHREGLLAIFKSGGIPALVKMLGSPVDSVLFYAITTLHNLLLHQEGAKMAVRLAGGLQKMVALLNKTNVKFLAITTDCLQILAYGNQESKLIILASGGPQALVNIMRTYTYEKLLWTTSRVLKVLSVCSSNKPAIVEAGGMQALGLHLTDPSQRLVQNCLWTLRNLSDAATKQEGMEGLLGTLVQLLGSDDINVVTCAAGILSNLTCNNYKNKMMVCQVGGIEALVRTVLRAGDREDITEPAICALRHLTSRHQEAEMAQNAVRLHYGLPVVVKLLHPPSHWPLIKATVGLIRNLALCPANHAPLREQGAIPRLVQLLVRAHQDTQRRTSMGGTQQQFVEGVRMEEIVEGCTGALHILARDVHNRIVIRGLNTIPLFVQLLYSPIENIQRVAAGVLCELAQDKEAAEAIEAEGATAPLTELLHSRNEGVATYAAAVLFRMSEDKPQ
Procedure: as §1

Question: Which “Inhibition of AR signaling (3xARE luciferase)” value ([1]; 10 µM compound, relative to vehicle) does the source give for `COc1ccc([C@H](C)N2CC(=O)N[C@H](C)C(=O)N(CCc3ccccc3Oc3ccccc3)CC(=O)N(c3cc(OC)cc(OC)c3)CC(=O)N(CCCOC(C)C)CC(=O)N([C@@H](C)c3ccc(OC)cc3)CC2=O)cc1` [Compound 13] (cyclo([dA][N(2-(2-PhOPh)Et)Gly][Gly(N-3,5-(OMe)2-Ph)][N((CH2)3OiPr)Gly][X1][X1])) here?
Answer: Its value is “more effective”.

Question: What about the IC50 ([1]; 3xARE LNCaP-abl cells, 48 h compound, androgen-activated, read-out: IC50 for inhibition of the AR luciferase reporter) of the same molecule?
Answer: The IC50 was 1020 nM.

Question: What about the “Effect on proliferation of U2OS cells” value [2] of the same molecule?
Answer: The value was “no effect”.

Question: And the “β-catenin:TCF association (co-immunoprecipitated β-catenin)” value [3]?
Answer: Its value is “decreased”.

Question: And the “Shift in measured hydrodynamic radius of β-catenin (DLS)” value (β-catenin)?
Answer: Its value is “significant shift”.
